# Laboratory results reported in US20250059139A1, “COMPOUNDS FOR TREATMENT OF CANCER” (THE JOHNS HOPKINS UNIVERSITY, priority 2021, published 2025).
# Assays:
# [1] = tested on: HUVEC; assay: mRNA expression of HUVEC in 3D-fibrin gels with HDF-conditioned media; type: cell-based, human; conditions: Fibroblast Conditioned Media: Yes, TasQ (10 μM): Yes
# Protocol: Three Dimensional (3D) Endothelial Sprouting Assay. The assay was performed using a minimum of 3 replicate wells of a 48 well tissue culture plate per drug dose per experiment, repeated 3 independent times in which human umbilical vein endothelial cells (HUVECs) obtained from Lonza Walkersville Inc (Walkersville, MD) attached to gelatin-coated dextran microcarrier bead are embedded in a fibrin matrix as described previously (Brennen et al. Oncotarget 7, 71298-71308 (2016)).
# Besides its therapeutic effects on cancer cells, TasQ's anti-cancer efficacy also involves its dose-dependent anti-angiogenic activity (see, e.g., Isaacs 2006, Olsson 2010, Dalrymple 2012), Isaacs 2013, Isaacs 2014, Brennen 2016). To clarify the MoA for this anti-angiogenic activity, a 3-dimensional (3D) endothelial cell sprouting assay was used. In this assay, human umbilical vein endothelial cells (HUVECs) in basal media supplemented with VEGF, EGF, FGF, IGF1 and 2% FBS in standard 2D cultures are attached to collagen-coated beads embedded in a 3D-fibrin gel in the same growth factor-supplemented media. […] This lack of sprouting is associated with an upregulation in Mef-2c mRNA (Table 2) and protein (FIG. 38), and its target genes (Table 2) like Alpha 2 Macroglobulin (A2M). […] When the 3D-fibrin gels are further supplemented with conditioned media (CM) from human dermal fibroblasts (HDF) to provide additional angiogenic factors typically present within the TME A2M (Nakatsu et al. Microvasc Res 66, 102-112 (2003)), expression of the MEF-2c target genes, including A2M, is blocked (Table 2); enabling endothelial cell proliferation and invasion into the gels (i.e., “sprouting”); eventually forming canalized and anastomosing neovascular tubes within 7 days (FIG. 37). Importantly, 3D-sprouting occurs (FIG. 37), even when HIF-1α expression is KD in the HUVEC cells (FIG. 39).
# [2] = tested on: prostate cancer xenografts; conditions: daily oral 10 mg/kg/d; cited from earlier work
# [3] = tested on: LNCaP and LNCaP/AHR-KD xenografts; assay: In vivo growth of LNCaP vs. LNCaP/AHR-KD xenografts in intact male hosts; set-up: species or system human; conditions: daily oral 10 mg/kg/d from day 53 post-inoculation
# Excerpt: Prostate Cancer Models. The source, history, and characteristics of the human prostate cancer cell lines and PDXs used, as well as cell culture conditions for their in vitro maintenance and the in vivo protocol for xenograft growth in triple immune-deficient NSG (i.e. NOD.Cg-PrkdcScidIl2rgtmlWji/Szj), adult (>8 week old) male mice obtained from the Sidney Kimmel Comprehensive Cancer Center (SKCCC) Animal Core Facility are described previously (Isaacs 2013; Brennen et al. JCI Insight. 2021, 6(8):e146827; Zhu et al. Oncogene 2020, 39(45): 6935-6949). […] In vitro growth curves were determined as described (Isaacs 2013). In vivo growth response to oral daily TasQ (10 mg/kg/d) of TRAMP-C2 mouse prostate cancers was evaluated in C57BL/6J syngeneic wild type vs. NOX-2 vs. iNOS null male mice obtained from Jackson Laboratory (Bar Harbor, ME). Growth response to oral daily TasQ (10 mg/kg/d) of TRAMP-C2 and B6CaP mouse prostate cancers was also evaluated in S100A9 null C57BL′6J male mice obtained from Dmitry Gabrilovich (Wistar Institute). […] In vitro growth curves were determined as described (Isaacs 2013). Growth response to daily oral TasQ vs. ESATA-20 (both at 10 mg/kg/d) of Myc-CaP-CR mouse prostate cancer was evaluated in syngeneic FVB/NJ castrate male mice from Jackson Laboratory. […]
# [4] = tested on: panel of 68 kinases; assay: Targeted kinase screen (Kinase Profiling Service, Thermo Fisher Scientific); type: biochemical; conditions: 10 μM
# Protocol: Targeted kinase screen. Inhibition of enzymatic activity of a panel of kinases in the presence of 10 μM ESATA-20 was analyzed by the Kinase Profiling Service at Thermo Fisher Scientific.
Structure (SMILES),"A2M Gene Expression (FPKM), Mef-2c Target Gene [1]","Adamt59 Gene Expression (FPKM), Mef-2c Target Gene [1]","Apinr Gene Expression (FPKM), Mef-2c Target Gene [1]",Ets1 Gene Expression (FPKM) [1],Ets2 Gene Expression (FPKM) [1],"KDR (VEGFR2) Gene Expression (FPKM), Ets Target Gene [1]","LI1 (VEGFR1) Gene Expression (FPKM), Ets Target Gene [1]","Mef-2c Target Gene Expression, Gene Expression (FPKM) [1]","NR4A1 Gene Expression (FPKM), Mef-2c Target Gene [1]","NR4A2 Gene Expression (FPKM), Mef-2c Target Gene [1]","SerpinB1 Gene Expression (FPKM), Mef-2c Target Gene [1]","Spry Gene Expression (FPKM), Mef-2c Target Gene [1]","Stc1 Gene Expression (FPKM), Mef-2c Target Gene [1]",enhancement of hypoxia [2],pO2 in the TME [2],growth response of LNCaP and LNCaP/AHR-KD xenografts [3],change in activity in any of the 68 kinases tested [4]
"COc1cccc2c1c(O)c(C(=O)N(C)c1ccc(C(F)(F)F)cc1)c(=O)n2C [TasQ, Tasquinimod]",257 FPKM,89.2 FPKM,81.1 FPKM,73 FPKM,45.2 FPKM,99.3 FPKM,"106,830 FPKM","21,217 FPKM","1,598 FPKM",297 FPKM,"4,926 FPKM","11,728 FPKM","18,619 FPKM",> 2 fold,1.4+/−1.0 mmHg,equally inhibited,–
COc1cccc2c1c(O)c(C(=O)N(c1ccc(C(F)(F)F)cc1)C1CCCCC1)c(=O)n2C [ESATA-20],–,–,–,–,–,–,–,–,–,–,–,–,–,–,–,–,< 15%
